{"source": "patent US12704520B2", "about": "“Melanogenesis detection method using FAM86A” (Research & Business Foundation Sungkyunkwan University, priority 2019, dated 2026)", "assay_type_in_all_cases": "cell-based, mouse", "key": {"[1]": {"system": "B16F10 cells", "test": "Fontana-Masson staining after FAM86A knockdown", "settings": "α-MSH 100 nM, 48 hours, microscope", "procedure": "The B16F10 cells cultured in Example 1 were seeded in 6-well plates at a density of 5×10^4 cells per well, grown for 24 hours, and FAM86A shRNA represented by SEQ ID NO: 17 was used for knockdown of the FAM86A gene. The cells were treated with α-MSH at 100 nM. The resulting cells were cultured in an incubator under conditions of 37° C. and 5% CO2 for 48 hours, washed twice with PBS, and 1 mL of a 1% ammoniacal silver nitrate solution was added to each well, followed by heating a plate in a 60° C. dryer for 1 hour. Subsequently, the plate was washed three times with running water, and treated with 1 mL of a 0.2% gold chloride solution per well for 30 seconds. Afterward, the plate was washed twice with running water, treated with 1 mL of a 5% sodium thiosulfate solution per well, washed twice with running water, treated with 1 mL of a 0.5% neutral red solution per well for 2 minutes, and then washed with running water. The reaction result was confirmed under a microscope."}, "[2]": {"system": "B16F10 cells", "test": "Melanin secretion assay after FAM86A knockdown and α-MSH treatment", "settings": "FAM86A knockdown plus α-MSH 100 nM, 48 hours, absorbance 475 nm", "procedure": "The melanin synthesis promoting hormone α-MSH was used to induce melanogenesis in melanocytes.\nThe B16F10 cells cultured in Example 1 were seeded in a 6-well plate at 5×10^4 cells/well and cultured for 24 hours, FAM86A (family with sequence similarity 86, member A) shRNA represented by SEQ ID NO: 17 was used for knockdown of the FAM86A gene, and then the cells were treated with α-MSH at 100 nM. The resulting cells were cultured in an incubator under conditions of 37° C. and 5% CO2 for 48 hours, and 800 μL of the cell culture fluid was transferred to a fresh tube, and centrifuged at 4° C. and 12,000 rpm for 5 minutes to obtain a supernatant. 100 μL of the resulting supernatant was dispensed into a 96-well plate, and subjected to absorbance measurement at 475 nm. Here, an amount of melanin production was calculated based on 100% of the amount of melanin in cells not treated with α-MSH."}, "[3]": {"system": "B16F10 cells", "test": "Melanin secretion assay after FAM86A knockdown", "settings": "FAM86A knockdown without α-MSH, 48 hours, absorbance 475 nm", "procedure": "The B16F10 cells cultured in Example 1 were seeded in a 6-well plate at 5×10^4 cells/well and cultured for 24 hours, and the knockdown of the FAM86A gene was induced using FAM86A shRNA represented by SEQ ID NO: 17. The cells were cultured in an incubator under conditions of 37° C. and 5% CO2 for 48 hours, the medium was removed, and then a cell lysis buffer was added at 200 μL per well to lyse the cells, followed by centrifugation at 4° C. and 12,000 rpm for 5 minutes and removal of a supernatant. 100 μL of the resulting supernatant was dispensed into a 96-well plate, and subjected to absorbance measurement at 475 nm. Here, an amount of melanin secretion was calculated based on 100% of the amount of melanin in cells in which the FAM86A gene was not knocked down."}, "[4]": {"system": "tyrosinase, TYRP-1, TYRP-2 and MITF genes", "test": "Real-time PCR of melanogenesis-associated genes after FAM86A knockdown", "settings": "B16F10 cells, 48 hours", "procedure": "The B16F10 cells cultured in Example 1 were seeded in 6-well plates at a density of 5×10^4 cells per well, grown for 24 hours, and FAM86A shRNA represented by SEQ ID NO: 17 was used for knockdown of the FAM86A gene. The cells were incubated in an incubator under conditions of 37° C. and 5% CO2 for 48 hours. After 48 hours, the medium was completely removed, the cells were decomposed with TRIzol and neutralized using BCP. The neutralized liquid was treated with isopropanol to precipitate mRNA. Subsequently, only the precipitated mRNA was collected using a centrifuge, and used for the experiment. Intracellular mRNA was synthesized into cDNA using a cDNA kit, and the expression levels of tyrosinase, TYRP-1, TYRP-2 and MITF genes, which are important for melanogenesis, were determined by PCR."}, "[5]": {"system": "MAPK & MC1R signaling pathway proteins", "test": "Western blotting of MAPK & MC1R signaling pathway proteins after FAM86A knockdown", "settings": "B16F10 cells, 48 hours", "procedure": "The B16F10 cells cultured in Example 1 were seeded in 6-well plates at a density of 5×10^4 cells per well, grown for 24 hours, and FAM86A shRNA represented by SEQ ID NO: 17 was used to induce the knockdown of FAM86A gene. The cells were cultured in an incubator under conditions of 37° C. and 5% CO2 for 48 hours. Afterward, the cells were washed twice with PBS. After completely removing the PBS, 200 μL of RIPA buffer, which is a cell lysis and staining reagent, was added to the plate, and the cells were collected using a scraper. Afterward, a protein was quantified using a BCA assay, and electrophoresis was performed using 10% SDS-PAGE. The protein in the resulting PAGE gel was transferred onto a PVDF membrane, and the resulting PVDF membrane onto which the protein transfer had been completed was blocked in TBS-T (in 100 mM NaCl, 10 mM Tris, 0.1% (v/v) Tween-20, pH 7.4 (PBST) containing 3% BSA) at room temperature. Then, after washing three times for 10 minutes using TBS-T, a primary antibody in 3% BSA dissolved in TBS-T was treated for 1 hour, and sufficiently washed with TBS-T. In addition, a secondary antibody was treated for 1 hour, and washed three times with PBS-T for 10 minutes each. Subsequently, the amount and location of a specific protein were confirmed using an ECL detection system. The correction of the protein amount was performed by checking the amount of an actin protein by stripping the PVDF membrane, and confirming it to have the same amount as that of the protein of interest. The primary and secondary antibodies were purchased from Cell Signaling and Santa Cruz."}}}
{"substance": "SEQ ID NO: 17: FAM86 shRNA (Mus musculus, NM_027446.2), pLKO.1 vector, target sequence SEQ ID NO: 27; used in the examples (DNA CCGGGTCTATGTAGCCTATACTATCCTCGAGGATAGTATAGGCTACATAGACTTTTTG)", "values": [{"measurement": "presence of melanin (Fontana-Masson staining)", "setting": "[1]", "value": "more present"}, {"measurement": "secretion amount of melanin", "setting": "[2]", "value": "increased"}, {"measurement": "amount of melanin secretion", "setting": "[3]", "value": "increased"}, {"measurement": "expression level of MITF gene", "setting": "[4]", "value": "significantly increased"}, {"measurement": "expression level of TYRP-1 gene", "setting": "[4]", "value": "significantly increased"}, {"measurement": "expression level of TYRP-2 gene", "setting": "[4]", "value": "significantly increased"}, {"measurement": "expression level of tyrosinase gene", "setting": "[4]", "value": "significantly increased"}, {"measurement": "expression level of MITF protein", "setting": "[5]", "value": "significantly increased"}, {"measurement": "expression level of p-CREB protein", "setting": "[5]", "value": "significantly increased"}, {"measurement": "expression level of p-PKA protein", "setting": "[5]", "value": "significantly increased"}, {"measurement": "p-ERK", "setting": "[5]", "value": "decreased"}, {"measurement": "p-JNK", "setting": "[5]", "value": "increased"}, {"measurement": "p-p38", "setting": "[5]", "value": "increased"}]}
